Assay results published in patent publication US20230002361A1, “2H-INDAZOLE DERIVATIVES AND THEIR USE IN THE TREATMENT OF DISEASE” (BIOGEN MA INC., priority 2019, published 2023).
Counter-ions that a name gives are not always drawn.

Key:
IRAK4 = biological target: T1, IRAK4 (Homo sapiens, UniProt Q9NWZ3); test: IRAK4 MSD Biochemical Assay (1 mM ATP, 2 h); conditions: room temperature, read-out: IRAK4 MSD Biochemical Assay (1 mM ATP, 2 h) IC50
T1 construct: with 0.1 nM IRAK4, 1.6 μM of biotinylated peptide substrate and 10 μM ATP
T1 sequence (Q9NWZ3 1-460): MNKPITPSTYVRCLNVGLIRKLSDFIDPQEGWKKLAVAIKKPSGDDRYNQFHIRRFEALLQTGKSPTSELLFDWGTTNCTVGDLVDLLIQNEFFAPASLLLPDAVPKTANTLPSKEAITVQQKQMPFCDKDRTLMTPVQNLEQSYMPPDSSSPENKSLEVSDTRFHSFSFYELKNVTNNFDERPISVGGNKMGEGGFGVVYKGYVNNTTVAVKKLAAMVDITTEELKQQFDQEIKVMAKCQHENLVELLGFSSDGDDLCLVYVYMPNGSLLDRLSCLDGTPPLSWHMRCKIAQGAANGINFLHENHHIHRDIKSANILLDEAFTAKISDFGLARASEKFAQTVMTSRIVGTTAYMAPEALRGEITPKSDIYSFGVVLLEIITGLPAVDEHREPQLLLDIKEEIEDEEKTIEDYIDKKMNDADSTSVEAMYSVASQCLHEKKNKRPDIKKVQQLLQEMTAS
Outline: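 Run with 1 mM ATP and […] for 2 h, then quenched with EDTA, pH 8. The phosphorylated biotinylated peptide was captured on streptavidin plates and detected with anti-phospho-threonine antibody plus Sulfo-Tag secondary by MSD electrochemiluminescence.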

MDR1 (P-gp) = biological target: T2, MDR1 (P-gp) (Homo sapiens, UniProt P08183); test: MDR1-MDCK assay (efflux ratio); assay type: in vitro ADME; conditions: human, MDCK-MDR1, 1 μM compound, 120 minutes incubation; read-out: MDR1-MDCK Efflux Ratio; (B-A/A-B)
T2 construct: host or cells: MDCK cells
Outline: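 Human MDR1-transfected MDCK monolayers, cultured 7 days on transwell inserts with TEER checked, were dosed with compound at 1 μM in HBSS-HEPES. Transport was measured in both A-B and B-A directions. Efflux ratio came from the directional permeabilities, with mass balance also calculated.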

T2 sequence (P08183 whole entry): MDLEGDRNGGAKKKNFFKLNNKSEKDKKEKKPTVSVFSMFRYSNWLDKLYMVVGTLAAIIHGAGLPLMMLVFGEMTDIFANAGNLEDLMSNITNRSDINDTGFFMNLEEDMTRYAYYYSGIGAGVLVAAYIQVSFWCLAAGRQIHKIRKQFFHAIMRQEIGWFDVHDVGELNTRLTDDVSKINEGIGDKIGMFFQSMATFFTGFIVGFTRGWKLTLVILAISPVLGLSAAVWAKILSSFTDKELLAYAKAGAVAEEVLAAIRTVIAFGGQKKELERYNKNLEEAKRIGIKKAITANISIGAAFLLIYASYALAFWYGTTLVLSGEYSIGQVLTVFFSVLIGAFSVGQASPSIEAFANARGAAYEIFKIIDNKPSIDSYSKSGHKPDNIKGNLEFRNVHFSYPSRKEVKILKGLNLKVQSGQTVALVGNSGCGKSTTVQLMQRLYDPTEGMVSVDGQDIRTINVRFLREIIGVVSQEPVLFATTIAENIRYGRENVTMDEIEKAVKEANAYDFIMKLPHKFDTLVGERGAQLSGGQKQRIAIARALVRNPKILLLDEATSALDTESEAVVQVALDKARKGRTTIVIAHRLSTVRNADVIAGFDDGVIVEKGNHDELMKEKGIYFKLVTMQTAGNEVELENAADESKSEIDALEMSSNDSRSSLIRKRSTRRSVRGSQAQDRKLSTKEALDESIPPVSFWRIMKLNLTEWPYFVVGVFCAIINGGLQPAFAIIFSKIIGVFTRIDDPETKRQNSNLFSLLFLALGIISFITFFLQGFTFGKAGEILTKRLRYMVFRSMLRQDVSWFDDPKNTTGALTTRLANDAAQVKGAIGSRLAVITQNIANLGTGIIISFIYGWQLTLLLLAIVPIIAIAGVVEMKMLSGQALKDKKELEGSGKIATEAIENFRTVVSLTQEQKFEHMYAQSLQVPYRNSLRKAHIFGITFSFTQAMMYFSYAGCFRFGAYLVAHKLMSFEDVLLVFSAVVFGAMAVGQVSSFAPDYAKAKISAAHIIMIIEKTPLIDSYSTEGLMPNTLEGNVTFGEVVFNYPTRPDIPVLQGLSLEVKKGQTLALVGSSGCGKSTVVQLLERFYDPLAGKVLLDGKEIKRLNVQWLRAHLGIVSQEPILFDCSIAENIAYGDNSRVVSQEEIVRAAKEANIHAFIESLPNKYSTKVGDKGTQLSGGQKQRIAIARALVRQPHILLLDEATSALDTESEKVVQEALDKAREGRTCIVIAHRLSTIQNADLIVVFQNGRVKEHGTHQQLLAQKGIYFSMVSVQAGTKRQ

Row | Structure (SMILES) | IC50 (IRAK4) | efflux ratio at 120 min, 1 μM (MDR1 (P-gp))
1 | COCCCn1cc2cc(C(=O)Nc3cccc(C(F)(F)F)n3)c(OC(C)C)nc2n1.Cl [Example 60, 6-Isopropxy-2-(3-methoxypropyl)-N-(6-(trifluoromethyl)pyridin-2-yl)-2H-pyrazolo[3,4-b]pyridine-5-carboxamide hydrochloride] | 2.2 nM | 1.5
2 | COCCCn1cc2cc(C(=O)Nc3cccc(OC)n3)c(OC(C)C)nc2n1.Cl [Example 61, 6-Isopropoxy-2-(3-methoxypropyl)-N-(6-methoxypyridin-2-yl)-2H-pyrazolo[3,4-b]pyridine-5-carboxamide hydrochloride] | 3.7 nM | 1.1
3 | COCCCn1cc2cc(C(=O)Nc3cccc(C(F)F)n3)c(OC(C)C)nc2n1.Cl [Example 62, N-(6-(difluoromethyl)pyridin-2-yl)-6-isopropoxy-2-(3-methoxsypropyl)-2H-pyrazolo[3,4-b]pyridine-5-carboxamide hydrochloride] | 0.6 nM | 1.7
4 | CC(C)Oc1nc2nn(C3CCOCC3)cc2cc1C(=O)Nc1cccc(C(F)F)n1 [Example 63, N-(6-(difluoromethyl)pyridin-2-yl)-6-isopropoxy-2-(tetrahydro-2H-pyran-4-yl)-2H-pyrazolo[3,4-b]pyridine-5-carboxamide] | 0.3 nM | 1
5 | COc1cccc(NC(=O)c2cc3cn(C4CCOCC4)nc3cc2OC(C)C)n1 [Example 66, 6-Isopropoxy-N-(6-methoxypyridin-2-yl)-2-(tetrahydro-2H-pyran-4-yl)-2H-indazole-5-carboxamide] | 1.4 nM | 0.9
6 | CC(C)Oc1cc2nn(C3CCOCC3)cc2cc1C(=O)Nc1ccn(C)n1 [Example 67, 6-Isopropoxy-N-(1-methyl-1H-pyrazol-3-yl)-2-(tetrahydro-2H-pyran-4-yl)-2H-indazole-5-carboxamide] | 9.5 nM | 4.6
7 | Cc1cccc(NC(=O)c2cc3cn(C4CCOCC4)nc3cc2OC(C)C)c1F [Example 68, N-(2-fluoro-3-methylphenyl)-6-isopropoxy-2-(tetrahydro-2H-pyran-4-yl)-2H-indazole-5-carboxamide] | 2 nM | 1.4
8 | COc1ncccc1NC(=O)c1cc2cn(C3CCOCC3)nc2cc1OC(C)C [Example 69, 6-Isopropoxy-N-(2-methoxypyridin-3-yl)-2-(tetrahydro-2H-pyran-4-yl)-2H-indazole-5-carboxamide] | 1 nM | 1
9 | CC(C)Oc1cc2nn(C3CCOCC3)cc2cc1C(=O)Nc1cccnc1OC(F)F.Cl [Example 70, N-(2-(difluoromethoxy)pyridin-3-yl)-6-isopropoxy-2-(tetrahydro-2H-pyran-4-yl)-2H-indazole-5-carboxamide hydrochloride] | 8.7 nM | 1.1
10 | CC(C)Oc1cc2nn(C3CCOCC3)cc2cc1C(=O)Nc1cccn2nccc12.Cl [Example 71, 6-Isopropoxy-N-(pyrazolo[1,5-a]pyridin-4-yl)-2-(tetrahydro-2H-pyran-4-yl)-2H-indazole-5-carboxamide hydrochloride] | 6.6 nM | 1.6
11 | CC(C)Oc1cc2nn(C3CCOCC3)cc2cc1C(=O)Nc1cnn2cccnc12 [Example 72, 6-Isopropoxy-N-(pyrazolo[1,5-a]pyrimidin-3-yl)-2-(tetrahydro-2H-pyran-4-yl)-2H-indazole-5-carboxamide] | 0.8 nM | 2.1
12 | CC(C)Oc1cc2nn(C3CCOCC3)cc2cc1C(=O)Nc1cccc2c1OCC2.Cl [Example 73, N-(2,3-dihydrobenzofuran-7-yl)-6-isopropoxy-2-(tetrahydro-2H-pyran-4-yl)-2H-indazole-5-carboxamide hydrochloride] | 1.8 nM | 0.7
13 | CO[C@H]1C[C@H](n2cc3cc(C(=O)Nc4cccc(C(F)F)n4)c(OC(C)C)cc3n2)C1 [Example 74, N-(6-(difluoromethyl)pyridin-2-yl)-6-isopropoxy-2-((1R,3R)-3-methoxycyclobutyl)-2H-indazole-5-carboxamide] | 0.4 nM | 0.5
14 | O=C(Nc1cccc(C(F)F)n1)c1cc2cn(C3CCOCC3)nc2cc1OC1CCOC1 (centres unmarked) [Example 75, N-(6-(difluoromethyl)pyridin-2-yl)-2-(tetrahydro-2H-pyran-4-yl)-6-((tetrahydrofuran-3-yl)oxy)-2H-indazole-5-carboxamide] | 1.1 nM | 2.9
15 | CC(C)Oc1nc2nn(CC3CCOC3)cc2cc1C(=O)Nc1ccccn1 (centres unmarked) [Example 77, 6-Isopropoxy-N-(pyridin-2-yl)-2-((tetrahydrofuran-3-yl)methyl)-2H-pyrazolo[3,4-b]pyridine-5-carboxamide] | 13.6 nM | 1.9
16 | COc1ncccc1NC(=O)c1cc2cn(CC3CCOC3)nc2nc1OC(C)C (centres unmarked) [Example 78, 6-Isopropoxy-N-(2-methoxypyridin-3-yl)-2-((tetrahydrofuran-3-yl)methyl)-2H-pyrazolo[3,4-b]pyridine-5-carboxamide] | 1.2 nM | 1.4
17 | CC(C)Oc1nc2nn(CC3CCOC3)cc2cc1C(=O)Nc1ccn(C)n1 (centres unmarked) [Example 79, 6-Isopropoxy-N-(1-methyl-1H-pyrazol-3-yl)-2-((tetrahydrofuran-3-yl)methyl)-2H-pyrazolo[3,4-b]pyridine-5-carboxamide] | 10.6 nM | 9.4
18 | CC(C)Oc1nc2nn(CC3CCOC3)cc2cc1C(=O)Nc1ccn(C(F)F)n1 (centres unmarked) [Example 80, N-(1-(difluoromethyl)-1H-pyrazol-3-yl)-6-isopropoxy-2-((tetrahydrofuran-3-yl)methyl)-2H-pyrazolo[3,4-b]pyridine-5-carboxamide] | 6.4 nM | 3.1
19 | CC(C)Oc1nc2nn(CC3CCOC3)cc2cc1C(=O)Nc1cc(F)cn(C)c1=O (centres unmarked) [Example 81, N-(5-fluoro-1-methyl-2-oxo-1,2-dihydroxypyridin-3-yl)-6-isopropxy-2-((tetrahydrofuran-3-yl)methyl)-2H-pyrazolo[3,4-b]pyridine-5-carboxamide] | 9.9 nM | 5.9
20 | CC(C)Oc1nc2nn(C3CCOCC3)cc2cc1C(=O)Nc1cnn2cccnc12 [Example 82, 6-Isopropoxy-N-(pyrazolo[1,5-a]pyrimidin-3-yl)-2-(tetrahydro-2H-pyran-4-yl)-2H-pyrazolo[3,4-b]pyridine-5-carboxamide] | 1.2 nM | 2.6
21 | Cn1cccc(NC(=O)c2cc3cn(C45COC(C)(C4)C5)nc3cc2OC2CCC2)c1=O [Example 83, 6-Cyclobutoxy-N-(1-methyl-2-oxo-1,2-dihydropyridin-3-yl)-2-(1-methyl-2-oxabicyclo[2.1.1]hexan-4-yl)-2H-indazole-5-carboxamide trifluoroacetate] | 1.4 nM | 1.2
22 | CC12CC(n3cc4cc(C(=O)Nc5cccn(C(F)F)c5=O)c(OC5CCC5)cc4n3)(CO1)C2 [Example 84, 6-Cyclobutoxy-N-(1-(difluoromethyl)-2-oxo-1,2-dihydropyridin-3-yl)-2-(1-methyl-2-oxabicyclo[2.1.1]hexan-4-yl)-2H-indazole-5-carboxamide trifluoroacetate] | 0.5 nM | 0.9
